In patent publication US20210330818A1, “METHOD FOR ANALYZING NON-OBSERVED EFFECT CONCENTRATION (NOEC) OF CHEMICAL ON ORGANISM” (priority 2020, published 2021):

Tests used:
[1] = tested on: quail; experiment: Chronic toxicity (growth and reproduction) test for quails fed poisonous feedstuff; assay type: in vivo; conditions: for Egg production: average daily, day 40 to 48; for Stillbirth rate: eggs of day 45 to 50; for NOEC (smallest NOEC among the endpoint effects): quail, overall over body weight, egg production, stillbirth rate
Source text: In the test, the quail was adopted as a test organism, acetamiprid and MCPA were adopted as test chemicals, and the end effects were body weight, average daily egg production and stillbirth rate.
Healthy and lively quails, which were 30-day old and weighed 90 g to 110 g, were selected for the test. The male and female were raised separately, with 10 quails for each cage. The quails were fed with a poisonous feedstuff twice a day at the same feeding amount for a long time, with an average feeding amount of 20 g per day for each quail. Since the feeding started, the body weight was recorded for quails in each treatment; the number of eggs produced on day 40 to 48 was counted; the eggs produced on day 45 to 50 were collected and hatched in a poultry-specific hatcher separately for each treatment; and the stillbirth rate was calculated. In this example, the endpoint effect data were body weight, egg production and stillbirth rate.

[2] = tested on: Trichogramma; experiment: Chronic toxicity test on Trichogramma, egg card-dipping method; conditions: for NOEC (smallest NOEC among the endpoint effects): Trichogramma, overall over egg yield, emergence rate, adult survival time
Source text: Trichogramma is one of the natural enemies that are most widely used and have dominant influence. As an important means to control insect pests, chemical pesticides can also cause toxic and side effects to natural enemies of the insect pests that will be killed by the chemical pesticides. […] In the test, Trichogramma was adopted as a test organism, dimethoate and imidacloprid were adopted as test chemicals, and endpoint effects were egg yield, emergence rate and adult survival time. 6 treatment concentrations (including 1 blank control and 5 test chemical concentrations, see Table 1 for details) were set for each test chemical group.
The egg card-dipping method was adopted. A 1.0 cm×2.0 cm card of rice moth eggs (approximately 100 eggs) was placed in each finger tube, then about 20 Trichogramma adults at 4 h to 6 h after emergence were introduced, and the Trichogramma adults were removed after they had parasitized the rice moth eggs for 24 h. 144 h later, the egg cards were dipped in test solutions with different concentrations separately for 5 s, then taken out and air dried, and put into finger tubes. The tubes were sealed with a black cloth, and then put in an incubator until the emergence of Trichogramma adults was completed. A 0.1% Triton X-100 aqueous solution was adopted as a blank control. 9 replicates were set for each treatment, and divided into three groups for the observation of 3 endpoint effects respectively, namely, with 3 replicates for each endpoint effect. A first group was used to investigate the egg yield; a second group was used to investigate the number of emerged adults, and the emergence rate was calculated (emergence rate=the number of emerged adults/the number of […]×100%); and a third group was used to investigate the adult survival time. If the number of emerged adults is less than 30 or the emerged adults have a low vitality and thus cannot be transferred to a new finger tube autonomously, the parasitism rate and survival time will not be investigated.

[3] = mass concentration 1.25 mg/Lfeedstuff
[4] = mass concentration 6.25 mg/Lfeedstuff
[5] = mass concentration 25 mg/Lfeedstuff
[6] = mass concentration 125 mg/Lfeedstuff
[7] = mass concentration 500 mg/Lfeedstuff
[8] = mass concentration 0.5 mg/Lfeedstuff
[9] = mass concentration 2 mg/Lfeedstuff
[10] = mass concentration 7 mg/Lfeedstuff
[11] = mass concentration 30 mg/Lfeedstuff
[12] = mass concentration 130 mg/Lfeedstuff

Cc1cc(Cl)ccc1OCC(=O)O [MCPA]
Validation: body weight compared with blank control ([1]; 20 mg/L): no significant difference | NOEC for chronic toxicity in quails based on the body weight [1]: 25 mg/kgfeedstuff | NOEC for chronic toxicity in quails based on the egg production [1]: 500 mg/kgfeedstuff | NOEC for chronic toxicity in quails based on the stillbirth rate [1]: 25 mg/kgfeedstuff | Body weight [1, 3]: 148.5 ab g | Egg production [1, 3]: 0.97 a eggs | Stillbirth rate [1, 3]: 22.4 a % | Body weight [1, 4]: 155.3 ab g | Egg production [1, 4]: 0.96 a eggs | Stillbirth rate [1, 4]: 23.2 ab % | Body weight [1, 5]: 150.7 ab g | Egg production [1, 5]: 0.96 a eggs | Stillbirth rate [1, 5]: 21.2 a % | Body weight [1, 6]: 145.2 b g | Egg production [1, 6]: 0.95 a eggs | Stillbirth rate [1, 6]: 26.4 b % | Body weight [1, 7]: 159.5 a g | Egg production [1, 7]: 0.94 a eggs | Stillbirth rate [1, 7]: 37.3 b % | NOEC (smallest NOEC among the endpoint effects) [1]: 25 mg/kgfeedstuff

C/C(=N\C#N)N(C)Cc1ccc(Cl)nc1 [Acetamiprid, acetamiprid]
Validation: body weight compared with blank control ([1]; 125 mg/L): no significant difference | Validation: egg production compared with blank control ([1]; 125 mg/L): no significant difference | Validation: stillbirth rate compared with blank control ([1]; 125 mg/L): no significant difference | NOEC for chronic toxicity in quails based on the body weight [1]: 130 mg/kgfeedstuff | NOEC for chronic toxicity in quails based on the egg production [1]: 130 mg/kgfeedstuff | NOEC for chronic toxicity in quails based on the stillbirth rate [1]: 130 mg/kgfeedstuff | Body weight [1, 8]: 150.9 a g | Egg production [1, 8]: 0.87 a eggs | Stillbirth rate [1, 8]: 23.4 a % | Body weight [1, 9]: 156.7 a g | Egg production [1, 9]: 0.86 a eggs | Stillbirth rate [1, 9]: 16.7 a % | Body weight [1, 10]: 153.6 a g | Egg production [1, 10]: 0.87 a eggs | Stillbirth rate [1, 10]: 25.7 a % | Body weight [1, 11]: 151.9 a g | Egg production [1, 11]: 0.89 a eggs | Stillbirth rate [1, 11]: 26.4 a % | Body weight [1, 12]: 145.4 a g | Egg production [1, 12]: 0.86 a eggs | Stillbirth rate [1, 12]: 21.9 a % | NOEC (smallest NOEC among the endpoint effects) [1]: 130 mg/kgfeedstuff

O=[N+]([O-])NC1=NCCN1Cc1ccc(Cl)nc1 [Imidacloprid, imidacloprid]
Validation: emergence rate compared with blank control ([2]; 35 mg/L): no significant difference | NOEC (smallest NOEC among the endpoint effects) [2]: 40 mg/L | NOEC for chronic toxicity in Trichogramma based on the adult survival time [2]: 160 mg/L | NOEC for chronic toxicity in Trichogramma based on the egg yield [2]: 80 mg/L | NOEC for chronic toxicity in Trichogramma based on the emergence rate [2]: 40 mg/L | Adult survival time ([2]; mass concentration 10 mg/L): 3.60 a d | Egg yield ([2]; mass concentration 10 mg/L): 37.0 a eggs | Emergence rate ([2]; mass concentration 10 mg/L): 90.57 a % | Adult survival time ([2]; mass concentration 20 mg/L): 3.23 a d | Egg yield ([2]; mass concentration 20 mg/L): 37.3 a eggs | Emergence rate ([2]; mass concentration 20 mg/L): 87.81 a % | Adult survival time ([2]; mass concentration 40 mg/L): 3.50 a d | Egg yield ([2]; mass concentration 40 mg/L): 36.0 a eggs | Emergence rate ([2]; mass concentration 40 mg/L): 78.19 a % | Adult survival time ([2]; mass concentration 80 mg/L): 3.21 a d | Egg yield ([2]; mass concentration 80 mg/L): 34.2 a eggs | Emergence rate ([2]; mass concentration 80 mg/L): 56.12 b % | Adult survival time ([2]; mass concentration 160 mg/L): 3.12 a d | Egg yield ([2]; mass concentration 160 mg/L): 28.5 b eggs | Emergence rate ([2]; mass concentration 160 mg/L): 27.65 c %

CNC(=O)CSP(=S)(OC)OC [Dimethoate, dimethoate]
Validation: egg yield compared with blank control ([2]; 90 mg/L): no significant difference | NOEC (smallest NOEC among the endpoint effects) [2]: 100 mg/L | NOEC for chronic toxicity in Trichogramma based on the adult survival time [2]: 400 mg/L | NOEC for chronic toxicity in Trichogramma based on the egg yield [2]: 100 mg/L | NOEC for chronic toxicity in Trichogramma based on the emergence rate [2]: 200 mg/L | Adult survival time ([2]; mass concentration 25 mg/L): 3.15 a d | Egg yield ([2]; mass concentration 25 mg/L): 36.1 a eggs | Adult survival time ([2]; mass concentration 50 mg/L): 3.27 a d | Egg yield ([2]; mass concentration 50 mg/L): 34.2 a eggs | Adult survival time ([2]; mass concentration 100 mg/L): 3.30 a d | Egg yield ([2]; mass concentration 100 mg/L): 31.6 a eggs | Adult survival time ([2]; mass concentration 200 mg/L): 2.67 a d | Egg yield ([2]; mass concentration 200 mg/L): 27.2 b eggs | Adult survival time ([2]; mass concentration 400 mg/L): 2.32 a d | Egg yield ([2]; mass concentration 400 mg/L): 20.7 b eggs
